Peptide text beside a SMILES is read from it.
Key:
[1] = Sensory evaluation of degree of sweetness relative to sugar; details: for degrees of sweetness: relative to a degree of sweetness of a 4% aqueous sucrose solution; for degree of sweetness: sensory evaluation
Text: ^3 Degree of sweetness relative to a degree of sweetness of a 4%

[2] = Stability (half-life) in phosphate buffer of pH 3 at 70° C.; format: physicochemical; details: acidic aqueous solution
Method: The peptides of the present invention may be 2 to 15 times as stable as aspartame when measured in a phosphate buffer of pH 3 at 70° C. This range in stability as compared to aspartame includes all specific values and subranges therebetween. The half-lives (in a phosphate buffer of pH 3 at 70° C.) of α-L-aspartyl-D-valine (R)-α-methylthiomethylbenzylamide, α-L-aspartyl-D-isoleucine (R)-α-methylthiomethylbenzylamide and α-L-aspartyl-D-valine (S)-α-methoxycarbonylmethylbenzylamide in an acidic aqueous solution were approximately 220 hours, 650 hours and 139 hours respectively.

half-life [2] | Structure (SMILES) | degrees of sweetness [1] | Degree of sweetness (relative to sugar) [1] | degree of sweetness [1]
~5.79 days | COC(=O)C[C@H](NC(=O)[C@H](NC(=O)[C@@H](N)CC(=O)O)C(C)C)c1ccccc1 [Example 5, α-L-aspartyl-D-valine (S)-α-methoxycarbonylmethylbenzylamide] | 1500 | 1,500 times | approximately 1,500 times that of sugar
 | CC[C@@H](NC(=O)[C@@H](N)CC(=O)O)C(=O)NC(CC(=O)OC)c1ccc(C)cc1 (mixture of isomers) [Example 14] | 200 | 200 times | 
 | CC[C@@H](NC(=O)[C@@H](N)CC(=O)O)C(=O)NC(CC(=O)OC)C1CCCCC1 (mixture of isomers) [Example 15, α-L-aspartyl-D-α-aminobutyric acid (RS)-α-cyclohexyl-β-methoxycarbonylethylamide] | 700 | 700 times | 
 | CC[C@@H](C)[C@@H](NC(=O)[C@@H](N)CC(=O)O)C(=O)NC(C)(C)c1ccccc1 [Example 9, α-L-aspartyl-D-isoleucine α,α-dimethylbenzylamide] | 250 | 250 times | 
 | CC[C@@H](NC(=O)[C@@H](N)CC(=O)O)C(=O)NC(CC(=O)OC)c1ccccc1 (mixture of isomers) [Example 10, α-L-aspartyl-D-α-aminobutyric acid (RS)-α-methoxycarbonylmethylbenzylamide] | 800 | 800 times | 
 | CC[C@@H](NC(=O)[C@H](CC(=O)O)NCCC(C)(C)C)C(=O)NC(CC(=O)OC)c1ccccc1 (mixture of isomers) [Example 18, N-3,3-dimethylbutyl-α-L-aspartyl-D-α-aminobutyric acid (RS)-α-methoxycarbonylmethylbenzylamide] | 1250 | 1,250 times | 
 | CSC[C@H](NC(=O)[C@@H](C)NC(=O)[C@@H](N)CC(=O)O)c1ccccc1 [Example 2, α-L-aspartyl-D-alanine (R)-α-methylthiomethylbenzylamide] | 1000 | 1,000 times | 
 | CSC[C@H](NC(=O)[C@H](NC(=O)[C@H](CC(=O)O)NCCC(C)(C)C)C(C)C)c1ccccc1 [Example 17, N-3,3-dimethylbutyl-α-L-aspartyl-D-valine (R)-α-methylthiomethylbenzylamide] | 5000 | 5,000 times | approximately 5,000 times that of sugar
 | CC(C)[C@@H](NC(=O)[C@@H](N)CC(=O)O)C(=O)NC(C)(C)c1ccccc1 [Example 16, α-L-aspartyl-D-valine α,α-dimethylbenzylamide] | 500 | 500 times | 
 | CC[C@@H](NC(=O)[C@H](CC(=O)O)NCCC(C)(C)C)C(=O)NC(CC(=O)OC)C1CCCCC1 (mixture of isomers) [Example 20, N-3,3-dimethylbutyl-α-L-aspartyl-D-α-aminobutyric acid (RS)-α-cyclohexyl-β-methoxycarbonylethylamide] | 1250 | 1,250 times | 
~27.1 days | CC[C@@H](C)[C@@H](NC(=O)[C@@H](N)CC(=O)O)C(=O)N[C@@H](CSC)c1ccccc1 [Example 4, α-L-aspartyl-D-isoleucine (R)-α-methylthiomethylbenzylamide] | 5000 | 5,000 times | approximately 5,000 times that of sugar
approximately 23 hours | COC(=O)[C@H](Cc1ccccc1)NC(=O)[C@@H](N)CC(=O)O [aspartame, reference compound] (H-Asp-Phe-OMe) |  |  | 
 | CC[C@@H](NC(=O)[C@@H](N)CC(=O)O)C(=O)NC(CC(=O)OC)c1ccc(O)cc1 (mixture of isomers) [Example 13] | 200 | 200 times | 
approximately 220 hours | CSC[C@H](NC(=O)[C@H](NC(=O)[C@@H](N)CC(=O)O)C(C)C)c1ccccc1 [Example 1, α-L-aspartyl-D-valine (R)-α-methylthiomethylbenzylamide] | 3000 | 3,000 times | approximately 3,000 times that of sugar
 | COC(=O)CC(NC(=O)[C@H](NC(=O)[C@H](CC(=O)O)NCCC(C)(C)C)C(C)C)c1ccccc1 (mixture of isomers) [Example 19, N-3,3-dimethylbutyl-α-L-aspartyl-D-valine (RS)-α-methoxycarbonylmethylbenzylamide] | 1250 | 1,250 times | 
 | CC[C@@H](NC(=O)[C@@H](N)CC(=O)O)C(=O)NC(CC(=O)OC)c1cccc2c1OCO2 (mixture of isomers) [Example 12] | 250 | 250 times | 
 | COC(=O)CC(NC(=O)[C@H](NC(=O)[C@@H](N)CC(=O)O)C(C)C)C1CCCCC1 (mixture of isomers) [Example 6, α-L-aspartyl-D-valine (RS)-α-cyclohexyl-β-methoxycarbonylethylamide] | 400 | 400 times | 
 | CC(C)[C@@H](NC(=O)[C@@H](N)CC(=O)O)C(=O)NC1(c2ccccc2)CCCC1 [Example 8, α-L-aspartyl-D-valine α-phenylcyclopentylamide] | 1200 | 1,200 times | approximately 1,200 times that of sugar
 | CC[C@@H](NC(=O)[C@@H](N)CC(=O)O)C(=O)NC(CC(=O)OC)c1ccc(OC)cc1 (mixture of isomers) [Example 11] | 200 | 200 times | 
 | CC[C@@H](NC(=O)[C@@H](N)CC(=O)O)C(=O)N[C@@H](CSC)c1ccccc1 [Example 3, α-L-aspartyl-D-α-aminobutyric acid (R)-α-methylthiomethylbenzylamide] | 4000 | 4,000 times | approximately 4,000 times that of sugar
 | CC[C@@H](NC(=O)[C@@H](N)CC(=O)O)C(=O)NC1(c2ccccc2)CCCC1 [Example 7, α-L-aspartyl-D-α-aminobutyric acid α-phenylcyclopentylamide] | 750 | 750 times | 

From US5958496A, “Aspartyl dipeptide amide derivatives and sweeteners” (Ajinomoto Co., Inc., priority 1996, dated 1999)
